Assay results as given in patent US20170267708A1, “C-4" POSITION SUBSTITUTED MACROLIDE DERIVATIVE” (priority 2014, published 2017).
Values after ≈ are worked out from the molar mass of the structure shown. Read-outs that look alike come from different tables or passages of the source.

Experiments:
[1] = system: Haemophilus influenzae ATCC43095; experiment: In vitro antibacterial activity, microbroth dilution (CLSI method); type: cell-based; details: for MIC: Haemophilus influenzae, ATCC43095
Protocol: (§1) In vitro antibacterial activities of the compound of the present invention, the compound represented by the formula [1] of Example 1, against various test bacteria were measured according to the microbroth dilution method (CLSI method). The activities of the compound of Reference Example 4 represented by the formula [3] was similarly measured. The MIC values (minimum inhibitory concentration, μg/ml) for the test bacteria of the bacterium symbols A, B, C, D, E, F, G, H, I, J, K, and L are shown in Table 2.

[2] = system: Haemophilus influenzae MSC17946; experiment: as above; type: cell-based; details: bacterium symbol B
Protocol: as §1

[3] = system: Haemophilus influenzae NSC17960; experiment: as above; type: cell-based; details: bacterium symbol C
Protocol: as §1

[4] = system: Streptococcus aureus ATCC29213; experiment: as above; type: cell-based; details: bacterium symbol L
Protocol: as §1

[5] = system: Streptococcus pneumoniae ATCC49619; experiment: as above; type: cell-based; details: bacterium symbol D
Protocol: as §1

[6] = system: Streptococcus pneumoniae ATCC700904; experiment: as above; type: cell-based; details: bacterium symbol G
Protocol: as §1

[7] = system: Streptococcus pneumoniae MSC07365; experiment: as above; type: cell-based; details: bacterium symbol H
Protocol: as §1

[8] = system: Streptococcus pneumoniae MSC07465; experiment: as above; type: cell-based; details: bacterium symbol E
Protocol: as §1

[9] = system: Streptococcus pneumoniae MSC08607; experiment: as above; type: cell-based; details: bacterium symbol F
Protocol: as §1

[10] = system: Streptococcus pyogenes ATCC12344; experiment: as above; type: cell-based; details: bacterium symbol I
Protocol: as §1

[11] = system: Streptococcus pyogenes MSC07811; experiment: as above; type: cell-based; details: bacterium symbol K
Protocol: as §1

[12] = system: Streptococcus pyogenes MSC07812; experiment: as above; type: cell-based; details: bacterium symbol J
Protocol: as §1

[13] = system: 39 kinds of clinically isolated strains of Hemophilus influenzae; experiment: Hemophilus influenzae susceptibility test; type: cell-based; details: 39 clinically isolated strains
Protocol: as §1
Drug susceptibility of 39 kinds of clinically isolated strains of Hemophilus influenzae was evaluated in the same manner as that of Test Example 1.

[14] = system: Haemophilus influenzae ATCC 43095 strain; experiment: Therapeutic effectiveness in Haemophilus influenzae-infected animals; type: in vivo, mice; details: for number of living cells in the lung: ICR mice, 3 days after inoculation, average±standard error
Protocol: As a bacterium, the Haemophilus influenzae ATCC 43095 strain (bacterium symbol A) was used. Cells of the bacterium cultured overnight on a chocolate agar medium were collected, suspended in a Hemophilus susceptibility test medium or the brain heart infusion medium supplemented with Fildes Enrichment, and then cultured overnight. The culture was diluted with the Hemophilus susceptibility test medium or the brain heart infusion medium supplemented with Fildes Enrichment to prepare a bacterial suspension for inoculation. The bacterial suspension for inoculation (0.05 mL each) was intratracheobronchially administered to mice (ICR, male, 4 weeks old) for infection. The inoculated bacterial amount was 2.25×10^6 CFU/mouse, or 9.00×10^5 CFU/mouse. From the next day of the inoculation, the compound represented by the formula [1] of Example 1 (100 and 200 mg/kg) or a medium (mixture of equivalent volumes of a 0.1 mol/L lactobionic acid solution and a 0.5 w/v % sodium hydrogencarbonate solution) was orally administered to the mice once a day for 2 days. The numbers of living cells in the lung observed 3 days after the inoculation are shown in FIG. 1 (each group consisted of 6 mice, average±standard error).
The notes for FIG. 1 are as follows. As for significant difference relative to the medium administration group, significance was determined by the Steel test, and the symbols * and ** mean p<0.05 and p<0.01, respectively. The MIC value of the compound of Example 1 represented by the formula [I] was 4 μg/mL, and the MIC value of the compound of Reference Example 4 represented by the formula [3] was 4 μg/mL.
In the following descriptions, the numbers of living cells in the lung as the test results may be represented in terms of common logarithm of number of live cells in the lung (CFU/lung) (common logarithm is henceforth indicated as log).

[15] = system: Streptococcus pneumoniae 1101 strain; experiment: Therapeutic effect test in erythromycin resistant pneumococcus (harboring erm(B) gene)-infected animals; type: in vivo, mice; details: for number of living cells in the lung: CBA/JN mice, 3 days after inoculation, average±standard error
Protocol: As a bacterium, the Streptococcus pneumoniae 1101 strain (clinically isolated strain) was used. A frozen stock of the strain used was added to the Todd Hewitt broth supplemented with 30 vol % inactivated horse serum, and the bacterium was cultured until the turbidity (OD600) became about 0.3. The culture medium was diluted with the Todd Hewitt broth supplemented with 30 vol % inactivated horse serum to prepare a bacterial suspension for inoculation. The bacterial suspension for inoculation (0.05 mL each) was intranasally administered to mice (CBA/JN, male, 5 weeks old) for infection. The inoculated bacterial amount was 7.50×10^4 CFU/mouse, or 1.65×10^5 CFU/mouse. From the next day of the inoculation, the compound of Example 1 represented by the formula [1] […] The numbers of live cells in the lung observed 3 days after the inoculation are shown in FIG. 2 (each group consisted of 5 or 6 mice, average±standard error).
(§2) The notes for FIG. 2 are as follows. As for significant difference relative to the medium administration group, significance was determined by the Steel test, and the symbols * and ** mean p<0.05 and p<0.01, respectively.

[16] = system: Streptococcus pneumoniae 1028 strain; experiment: Therapeutic effect test in erythromycin resistant pneumococcus (harboring mef(A) gene)-infected animals; type: in vivo, mice; details: for number of living cells in the lung: CBA/JN mice, 3 days after inoculation
Protocol: As a bacterium, the Streptococcus pneumoniae 1028 strain (clinically isolated strain) was used. A frozen stock of the strain used was added to the Todd Hewitt broth supplemented with 30 vol % inactivated horse serum, and the bacterium was cultured until the turbidity (OD600) became about 0.3. The culture was diluted with the Todd Hewitt broth supplemented with 30 vol % inactivated horse serum to prepare a bacterial suspension for inoculation. The bacterial suspension for inoculation (0.05 mL each) was intranasally administered to mice (CBA/JN, male, 5 weeks old) for infection. The inoculated bacterial amount was 3.45×10^4 CFU/mouse, or 3.90×10^4 CFU/mouse. From the next day of the inoculation, the compound of Example 1 represented by the formula [1] (3, 10, 30 and 100 mg/kg) or a medium (mixture of equivalent volumes of a 0.1 mol/L lactobionic acid solution and a 0.5 w/v % sodium hydrogencarbonate solution) was orally administered to the mice once a day for 2 days. The numbers of living cells in the lung observed 3 days after the inoculation are shown in FIG. 3 (each group consisted of 5 or 6 mice, average±standard error).
(§3) The notes for FIG. 3 are as follows. As for significant difference relative to the medium administration group, significance was determined by the Steel test, and the symbols * and ** mean p<0.05 and p<0.01, respectively.

[17] = system: Streptococcus pneumoniae 1101 strain; experiment: MIC against the strain of Test Example 4; type: cell-based; details: notes for FIG. 2, erm(B) strain
Protocol: as §2

[18] = system: Streptococcus pneumoniae 1028 strain; experiment: MIC against the strain of Test Example 5; type: cell-based; details: notes for FIG. 3, mef(A) strain
Protocol: as §3

[19] = 100 mg/kg orally once a day for 2 days
[20] = 200 mg/kg orally once a day for 2 days
[21] = 30 mg/kg orally once a day for 2 days
[22] = 10 mg/kg orally once a day for 2 days, average±standard error
[23] = 30 mg/kg orally once a day for 2 days, 1.30 = lower than detection limit
[24] = 100 mg/kg orally once a day for 2 days, 1.30 = lower than detection limit

CCNC(=O)CN1C(=O)O[C@]2(C)[C@@H](CC)OC(=O)[C@H](C)[C@@H](O[C@H]3C[C@@](C)(OC)[C@@](O)(CN(C)CCN(C(C)C)C(C)C)[C@H](C)O3)[C@H](C)[C@@H](O[C@@H]3O[C@H](C)C[C@H](N(C)C)[C@H]3O)[C@@](C)(OC)C[C@@H](C)C(=O)[C@H](C)[C@@H]12 [Example 1]
MIC (minimum inhibitory concentration) ([1]; bacterium symbol A): 4 µg/mL (≈ 3.89 µM)
MIC value ([1]; notes for FIG. 1, strain of Test Example 3): 4 µg/mL (≈ 3.89 µM)
MIC (minimum inhibitory concentration) [2]: 8 µg/mL (≈ 7.78 µM)
MIC (minimum inhibitory concentration) [3]: 4 µg/mL (≈ 3.89 µM)
MIC (minimum inhibitory concentration) [4]: 1 µg/mL (≈ 0.972 µM)
MIC (minimum inhibitory concentration) [5]: 0.06 µg/mL (≈ 0.0583 µM)
MIC (minimum inhibitory concentration) [6]: 0.12 µg/mL (≈ 0.117 µM)
MIC (minimum inhibitory concentration) [7]: 4 µg/mL (≈ 3.89 µM)
MIC (minimum inhibitory concentration) [8]: 0.03 µg/mL (≈ 0.0292 µM)
MIC (minimum inhibitory concentration) [9]: 0.06 µg/mL (≈ 0.0583 µM)
MIC (minimum inhibitory concentration) [10]: 0.06 µg/mL (≈ 0.0583 µM)
MIC (minimum inhibitory concentration) [11]: 2 µg/mL (≈ 1.94 µM)
MIC (minimum inhibitory concentration) [12]: 0.12 µg/mL (≈ 0.117 µM)
MIC50 [13]: 4 µg/mL (≈ 3.89 µM)
MIC90 [13]: 8 µg/mL (≈ 7.78 µM)
number of living cells in the lung [14, 19]: 3.54±0.49 log (CFU/lung)
number of living cells in the lung [14, 20]: 2.83±0.53 log (CFU/lung)
therapeutic effectiveness relative to the compound of Reference Example 4 ([14]; overall conclusion of Test Example 3): comparable
number of living cells in the lung [15, 21]: 4.14±0.19 log (CFU/lung)
number of living cells in the lung [15, 19]: 2.28±0.24 log (CFU/lung)
therapeutic effectiveness relative to the compound of Reference Example 4 ([15]; overall conclusion of Test Example 4): superior
number of living cells in the lung ([16]; 3 mg/kg orally once a day for 2 days, average±standard error): 6.45±0.18 log (CFU/lung)
number of living cells in the lung [16, 22]: 1.30±0.00 log (CFU/lung)
number of living cells in the lung [16, 23]: 1.30±0.00 log (CFU/lung)
number of living cells in the lung [16, 24]: 1.30±0.00 log (CFU/lung)
therapeutic effectiveness relative to the compound of Reference Example 4 ([16]; overall conclusion of Test Example 5): superior
MIC value [17]: 0.25 µg/mL (≈ 0.243 µM)
MIC value [18]: 0.12 µg/mL (≈ 0.117 µM)

CC[C@H]1OC(=O)[C@H](C)[C@@H](O[C@H]2C[C@@](C)(OC)[C@@](O)(CN(C)CCN(CC)CC)[C@H](C)O2)[C@H](C)[C@@H](O[C@@H]2O[C@H](C)C[C@H](N(C)C)[C@H]2O)[C@@](C)(OC)C[C@@H](C)C(=O)[C@H](C)[C@H]2N(CCCS(C)(=O)=O)C(=O)O[C@]12C [Reference Example 4, reference compound]
MIC ([1]; bacterium symbol A, read-out: MIC (minimum inhibitory concentration)): 4 µg/mL (≈ 3.86 µM)
MIC ([1]; notes for FIG. 1, strain of Test Example 3, read-out: MIC value): 4 µg/mL (≈ 3.86 µM)
MIC ([2]; Haemophilus influenzae, MSC17946, read-out: MIC (minimum inhibitory concentration)): 8 µg/mL (≈ 7.73 µM)
MIC ([3]; Haemophilus influenzae, NSC17960, read-out: MIC (minimum inhibitory concentration)): 4 µg/mL (≈ 3.86 µM)
MIC ([4]; Streptococcus, ATCC29213, read-out: MIC (minimum inhibitory concentration)): 0.5 µg/mL (≈ 0.483 µM)
MIC ([5]; Streptococcus pneumoniae, ATCC49619, read-out: MIC (minimum inhibitory concentration)): 0.03 µg/mL (≈ 0.029 µM)
MIC ([6]; Streptococcus pneumoniae, ATCC700904, read-out: MIC (minimum inhibitory concentration)): 0.12 µg/mL (≈ 0.116 µM)
MIC ([7]; Streptococcus pneumoniae, MSC07365, read-out: MIC (minimum inhibitory concentration)): 4 µg/mL (≈ 3.86 µM)
MIC ([8]; Streptococcus pneumoniae, MSC07465, read-out: MIC (minimum inhibitory concentration)): 0.03 µg/mL (≈ 0.029 µM)
MIC ([9]; Streptococcus pneumoniae, MSC08607, read-out: MIC (minimum inhibitory concentration)): 0.06 µg/mL (≈ 0.0579 µM)
MIC ([10]; Streptococcus pyogenes, ATCC12344, read-out: MIC (minimum inhibitory concentration)): 0.06 µg/mL (≈ 0.0579 µM)
MIC ([11]; Streptococcus pyogenes, MSC07811, read-out: MIC (minimum inhibitory concentration)): 4 µg/mL (≈ 3.86 µM)
MIC ([12]; Streptococcus pyogenes, MSC07812, read-out: MIC (minimum inhibitory concentration)): 0.25 µg/mL (≈ 0.241 µM)
MIC50 [13]: 4 µg/mL (≈ 3.86 µM)
MIC90 [13]: 8 µg/mL (≈ 7.73 µM)
number of living cells in the lung [14, 19]: 4.37±0.27 log (CFU/lung)
number of living cells in the lung [14, 20]: 2.53±0.23 log (CFU/lung)
number of living cells in the lung ([15]; 10 mg/kg orally once a day for 2 days): 5.86±0.12 log (CFU/lung)
number of living cells in the lung [15, 21]: 5.22±0.16 log (CFU/lung)
number of living cells in the lung [15, 19]: 3.65±0.36 log (CFU/lung)
number of living cells in the lung [16, 22]: 5.67±0.38 log (CFU/lung)
number of living cells in the lung [16, 23]: 1.30±0.00 log (CFU/lung)
number of living cells in the lung [16, 24]: 1.30±0.00 log (CFU/lung)
MIC ([17]; Streptococcus pneumoniae, 1101STRAIN): 0.12 µg/mL (≈ 0.116 µM)
MIC ([18]; Streptococcus pneumoniae, 1028STRAIN): 0.03 µg/mL (≈ 0.029 µM)
